The target of the assay is T1, Recombinant human Src (Homo sapiens, UniProt P12931).
T1 construct: made in house; host or cells: baculovirus-insect cell system
Nature of the assay: Src tyrosine kinase activity assay with poly E4Y and 32P-ATP. It counts as biochemical. As to conditions: poly E4Y, 32P-ATP; NI = no inhibition; read-out: IC50 Value Src. The protocol: Recombinant human Src was expressed using the baculovirus-insect cell system and purified as published (Budde et al., 1993 and 2000). Recombinant Csk and the FGF receptor (FGFr) were expressed as […] fusion proteins using the pGEX expression vector and E. coli, and purified as described (Sun & Budde, 1995).
The tyrosine kinase activity of Src, Csk and FGFr was determined using poly E4Y and ^32P-ATP. Briefly, enzymes were assayed in a reaction mixture […] consisting of 0.15 M EPPS-NaOH (pH 8.0) with 6 mM MgCl2, 0.2 mM γ^32P-ATP (0.2-0.4 mCi/μmol), 10% glycerol, 0.1% Triton X-100, and poly E4Y. Poly E4Y is a synthetic peptide whose phosphorylation is measured in this assay by the addition of the radioactively labeled phosphate from the ATP (Budde et al., 1995). […] When ATP was varied (0, 50, 100 and 250 μM), poly E4Y was kept constant at 150 μg/ml.
A word on the IC50: it is the point on the concentration scale where inhibition reaches its midpoint. Take `Cc1c(-c2cccc(C(N)=O)c2)sc2c(NN=Cc3cccnc3)ncnc12` [Compound 21, 3-Pyridinecarboxaldehyde (6-(3-aminocarbonylphenyl)-7-methylthieno[3,2-d]pyrimidin-4-yl)hydrazone]: the IC50 worked out at 91 nM.

With `CCOc1ccccc1-c1sc2c(NN=Cc3ccc(OC)c(O)c3)ncnc2c1OC` [Compound 40, 3-Hydroxy-4-methoxybenzaldehyde (6-(2-ethoxyphenyl)-7-methoxythieno[3,2-d]pyrimidin-4-yl)hydrazone], the IC50 came to 22 nM. The value for `COc1ccc(C=NNc2ncnc3c(C)c(-c4cccc(C(N)=O)c4)sc23)cc1O` [Compound 19, 3-Hydroxy-4-methoxybenzaldehyde (6-(3-aminocarbonylphenyl)-7-methylthieno[3,2-d]pyrimidin-4-yl)hydrazone] was 14 nM; that for `CCOc1ccccc1-c1sc2c(NN=Cc3ccc(OC)c(O)c3)ncnc2c1COCC(O)CO` (racemic) [Compound 56, 3-Hydroxy-4-methoxybenzaldehyde(7-((±)-4,5-dihydroxy-2-oxopentyl) (6-(2-ethoxyphenyl)thieno[3,2-d]pyrimidin-4-yl)hydrazone] was 120 nM; that for `CCOc1ccccc1-c1sc2c(NN=Cc3cccc(C(=O)O)c3)ncnc2c1C#N` [compound 114] was 3.2 nM.

As for `Cc1c(-c2cccc(C(N)=O)c2)sc2c(NN=Cc3cccs3)ncnc12` [Compound 20, 2-Thiophenecarboxaldehyde (6-(3-aminocarbonylphenyl)-7-methylthieno[3,2-d]pyrimidin-4-yl)hydrazone], the 50% inhibitory concentration (IC50) was 54 nM.

`CCOc1cc(F)ccc1-c1sc2c(NN=Cc3cccs3)ncnc2c1O` [Compound 109, 2-Thiophenecarboxaldehyde (6-(2-ethoxy-4-fluorophenyl)-7-hydroxythieno[3,2-d]pyrimidin-4-yl)hydrazone]: the concentration for half-maximal inhibition (IC50) was determined as 1.1 nM. The value for `CCOc1cc(F)ccc1-c1sc2c(NN=Cc3ccc(OC)c(O)c3)ncnc2c1C` [Compound 57, 3-Hydroxy-4-methoxybenzaldehyde (6-(2-ethoxy-4-fluorophenyl)-7-methylthieno[3,2-d]pyrimidin-4-yl)hydrazone] was 4.9 nM; that for `CCOc1ccccc1-c1sc2c(NN=Cc3ccc(N(C)C)cc3)ncnc2c1O` [Compound 133, 4-N,N-Dimethylaminobenzaldehyde (6-(2-ethoxyphenyl)-7-hydroxythieno[3,2-d]pyrimidin-4-yl)hydrazone] was 6.2 nM; that for `CCOc1ccccc1-c1sc2c(NN=Cc3ccc(N(C)C)cc3)ncnc2c1C#N` [compound 131] was 130 nM. Then `Cc1c(CN2CCOCC2)sc2c(NN=Cc3cccnc3)ncnc12` [Compound 15, 3-Pyridinecarboxaldehyde (7-methyl-6-(morpholin-4-yl)methyllthieno[3,2-d]pyrimidin-4-yl)hydrazone], with 320 nM; and `Cc1c(-c2ccccc2OCc2ccccc2)sc2c(NN=Cc3cccnc3)ncnc12` [Compound 82, 3-Pyridinecarboxaldehyde (6-(2-benzyloxyphenyl)-7-methylthieno[3,2-d]pyrimidin-4-yl)hydrazone], with 3900 nM; and `C=CCOc1ccccc1-c1sc2c(NN=Cc3ccc(OC)c(O)c3)ncnc2c1C` [Compound 80, 3-Hydroxy-4-methoxybenzaldehyde (6-(2-allyloxyphenyl)-7-methylthieno[3,2-d]pyrimidin-4-yl)hydrazone], with 6.5 nM. Then `CCOc1ccccc1-c1sc2c(NN=Cc3ccccc3Cl)ncnc2c1C` [Compound 77, 2-Chlorobenzaldehyde (6-(2-ethoxyphenyl)-7-methylthieno[3,2-d]pyrimidin-4-yl)hydrazone], with 1400 nM; and `CCOc1ccccc1-c1sc2c(NN=Cc3ccsc3)ncnc2c1O` [Compound 93, 3-Thiophenecarboxaldehyde (6-(2-ethoxyphenyl)-7-hydroxythieno[3,2-d]pyrimidin-4-yl)hydrazone], with 2.8 nM. As to `CCOc1ccccc1-c1sc2c(NN=Cc3cccnc3)ncnc2c1CO` [Compound 70, 3-Pyridinecarboxaldehyde (6-(2-ethoxyphenyl)-7-hydroxymethylthieno[3,2-d]pyrimidin-4-yl)hydrazone], the IC50 is 20 nM. The value for `CCOc1ccccc1-c1sc2c(NN=Cc3cccc(F)c3)ncnc2c1C#N` [Compound 139, 3-Fluorobenzaldehyde (7-cyano-6-(2-ethoxyphenyl)thieno[3,2-d]pyrimidin-4-yl)hydrazone] was 4.7 nM.

Turning to `CCOc1ccccc1-c1sc2c(NN=Cc3ccc(NC(C)=O)cc3)ncnc2c1C#N` [compound 130], the concentration for half-maximal inhibition (IC50) stood at 1.8 nM. Then `CCOc1ccccc1-c1sc2c(NN=Cc3ccc(OC)c(O)c3)ncnc2c1OCCN1CCOCC1` [Compound 41, 3-Hydroxy-4-methoxybenzaldehyde (6-(2-ethoxyphenyl)-7-(2-(morpholin-4-yl)-ethoxy)thieno[3,2-d]pyrimidin-4-yl)hydrazone], with 340 nM. The value for `Cc1c(-c2ccc(N)cc2)sc2c(NN=Cc3cccs3)ncnc12` [Compound 9, 2-Thiophenecarboxaldehyde (6-(4-aminophenyl)-7-methylthieno[3,2-d]pyrimidin-4-yl)hydrazone] was 19 nM.

Regarding `CCOc1ccccc1-c1sc2c(NN=Cc3ccc(F)c(Cl)c3)ncnc2c1O` [Compound 125, 3-Chloro-4-fluorobenzaldehyde (6-(2-ethoxyphenyl)-7-hydroxythieno[3,2-d]pyrimidin-4-yl)hydrazone], the IC50 turned out to be 45 nM. Take `COc1ccc(C=NNc2ncnc3c(C)c(-c4ccccc4CN)sc23)cc1O` [Compound 7, 3-Hydroxy-4-methoxybenzaldehyde (6-(2-aminomethyl)phenyl-7-methylthieno[3,2-d]pyrimidin-4-yl)hydrazone]: the IC50 turned out to be 120 nM.

Take `CCOc1ccccc1-c1sc2c(NN=Cc3ccc(C)s3)ncnc2c1O` [Compound 128, 5-Methyl-2-thiophenecarboxaldehyde (6-(2-ethoxyphenyl)-7-hydroxythieno[3,2-d]pyrimidin-4-yl)hydrazone]: the IC50 is 2.8 nM. Then `CCOc1ccccc1-c1sc2c(NN=Cc3ccoc3)ncnc2c1C#N` [compound 127], with 3 nM; and `COc1ccc(C=NNc2ncnc3c(C)c(-c4cccc(CN5CCOCC5)c4)sc23)cc1O` [Compound 17, 3-Hydroxy-4-methoxybenzaldehyde (7-methyl-6-(3-(morpholin-4-yl)methyl)phenylthieno[3,2-d]pyrimidin-4-yl)hydrazone], with 26 nM. Then `CCOc1ccccc1-c1sc2c(NN=Cc3ccc(O)cc3)ncnc2c1C#N` [compound 102], with 1.5 nM; and `CCOc1ccccc1-c1sc2c(NN=Cc3cc(Br)c(O)c(OC)c3)ncnc2c1C#N` [compound 87], with 0.31 nM.

Consider `CCOc1ccccc1-c1sc2c(NN=Cc3ccc4c(c3)OCCO4)ncnc2c1C` [Compound 66, 2,3-Dihydro-benzo[1,4]dioxine-6-carbaldehyde (6-(2-ethoxyphenyl)-7-methylthieno[3,2-d]pyrimidin-4-yl)hydrazone], for which the IC50 stood at 6.4 nM. As to `CCOc1ccccc1-c1sc2c(NN=Cc3sccc3C)ncnc2c1C#N` [compound 122], the IC50 amounted to 5.2 nM. The value for “4-Carboxybenzaldehyde (6-(4-aminomethyl)phenyl-7-methylthieno[3,2-d]pyrimidin-4-yl)hydrazone [Compound 2]” was 24 nM; that for `CCOc1ccccc1-c1sc2c(NN=Cc3cc(O)c(OC)c(OC)c3)ncnc2c1C` [Compound 64, 3,4-Dimethoxy-5-hydroxybenzaldehyde (6-(2-ethoxyphenyl)-7-methylthieno[3,2-d]pyrimidin-4-yl)hydrazone] was 1.2 nM; that for `CCOc1cc(F)ccc1-c1sc2c(NN=Cc3cc(OC)c(OCCN(CC)CC)c(OC)c3)ncnc2c1O` [Compound 159, 4-(2-Diethylamino-ethoxy)-3,5-dimethoxy-benzaldehyde (6-(2-ethoxy-4-fluorophenyl)-7-hydroxythieno[3,2-d]pyrimidin-4-yl)hydrazone] was 0.56 nM.

Turning to `Cc1c(-c2ccc(CN)cc2)sc2c(NN=Cc3cccnc3)ncnc12` [Compound 3, 3-Pyridinecarboxaldehyde (6-(4-aminomethyl)phenyl-7-methylthieno[3,2-d]pyrimidin-4-yl)hydrazone], the concentration for half-maximal inhibition (IC50) was found to be 24 nM. Then `Cc1c(-c2ccc(C(N)=O)cc2)sc2c(NN=Cc3cccnc3)ncnc12` [Compound 24, 3-Pyridinecarboxaldehyde (6-(4-aminocarbonylphenyl)-7-methylthieno[3,2-d]pyrimidin-4-yl)hydrazone], with 13 nM; and `CCOc1ccccc1-c1sc2c(NN=Cc3ccc(C(=O)O)cc3)ncnc2c1O` [Compound 74, 4-Carboxybenzaldehyde (6-(2-ethoxyphenyl)-7-hydroxythieno[3,2-d]pyrimidin-4-yl)hydrazone], with 0.29 nM; and `COc1ccc(C=NNc2ncnc3c(C)c(-c4ccc(C(N)=O)cc4)sc23)cc1O` [Compound 23, 3-Hydroxy-4-methoxybenzaldehyde (6-(4-aminocarbonylphenyl)-7-methylthieno[3,2-d]pyrimidin-4-yl)hydrazone], with 20 nM.

On to `CCOc1ccccc1-c1sc2c(NN=Cc3cccs3)ncnc2c1CO` [Compound 71, 2-Thiophenecarboxaldehyde (6-(2-ethoxyphenyl)-7-hydroxymethylthieno[3,2-d]pyrimidin-4-yl)hydrazone], for which the half-maximal inhibitory concentration (IC50) was 28 nM. The value for `CCOc1ccccc1-c1sc2c(NN=Cc3[nH]cnc3C)ncnc2c1C#N` [compound 115] was 2.6 nM.

The values above are taken from patent publication US20060004002A1 (priority 2004, published 2006).
